Key:
LRRK2-GFP [1] = test: Western blot analysis of LRRK2-GFP Ser935 phosphorylation in BacMam transduced SH-SY5Y cells; format: cell-based, human; details: LRRK2-IN-1 3 µM 90 min, wild-type, G2019S, R1441C, Figure 3A
Procedure: Immunoblot analysis: BacMam LRRK2-GFP transduced U-2 OS or SH-SY5Y cells (10^7 cells) were left untreated or treated with 3 µM LRRK2-IN-I for 90 min. For lysate preparation, the cells were washed once with ice-cold PBS and lysed by addition of ice-cold lysis buffer (20 mM Tris-HCl, pH 7.4, 1% NP-40, 5 mM EDTA, 5 mM NaF, 150 mM NaCl, and 1∶100 of protease and phosphatase inhibitor cocktails). The lysate was cleared of debris by centrifugation. Equal amount of total protein was loaded onto each lane for SDS-PAGE (3–8% Tris Acetate). The proteins were transferred onto nitrocellulose membrane using the iBLOT® dry blotting system (Life Technologies) according to manufacturer’s protocol. The membranes were blocked and incubated with a primary antibody against LRRK2 (Cell Signaling Technologies), followed by incubation with alkaline phosphatase-conjugated secondary antibody (WesternBreeze® chromogenic Kit, Life Technologies). The blot was developed by using the chromogenic BCIP/NBT substrate (WesternBreeze® chromogenic Kit, Life Technologies). […] Two days post induction, cells were treated for 90 minutes in the presence of 20 µM of compound or DMSO vehicle control. […]

LRRK2-GFP [2] = test: Western blot analysis of LRRK2-GFP phosphorylation in BacMam transduced U-2 OS cells; format: cell-based, human; details: LRRK2-IN-1 3 µM 90 min, wild-type, G2019S, R1441C, Figure 1B
Procedure: (§1) Immunoblot analysis: BacMam LRRK2-GFP transduced U-2 OS or SH-SY5Y cells (10^7 cells) were left untreated or treated with 3 µM LRRK2-IN-I for 90 min. For lysate preparation, the cells were washed once with ice-cold PBS and lysed by addition of ice-cold lysis buffer (20 mM Tris-HCl, pH 7.4, 1% NP-40, 5 mM EDTA, 5 mM NaF, 150 mM NaCl, and 1∶100 of protease and phosphatase inhibitor cocktails). The lysate was cleared of debris by centrifugation. Equal amount of total protein was loaded onto each lane for SDS-PAGE (3–8% Tris Acetate). The proteins were transferred onto nitrocellulose membrane using the iBLOT® dry blotting system (Life Technologies) according to manufacturer’s protocol. The membranes were blocked and incubated with a primary antibody against LRRK2 (Cell Signaling Technologies), followed by incubation with alkaline phosphatase-conjugated secondary antibody (WesternBreeze® chromogenic Kit, Life Technologies). The blot was developed by using the chromogenic BCIP/NBT substrate (WesternBreeze® chromogenic Kit, Life Technologies). […]

LRRK2-GFP [3] = target: T1, LRRK2-GFP (Homo sapiens, UniProt Q5S007, G2019S); test: as above; format: cell-based; details: BacMam LRRK2-GFP G2019S, 10 µM, Figure S1
T1 construct: GFP is fused to the C-terminus of full-length human LRRK2 wild-type, G2019S, R1441C and kinase-dead D1994A; host or cells: U-2 OS cells transduced with BacMam
T1 sequence (Q5S007 whole entry G2019S, the tested form may be a part): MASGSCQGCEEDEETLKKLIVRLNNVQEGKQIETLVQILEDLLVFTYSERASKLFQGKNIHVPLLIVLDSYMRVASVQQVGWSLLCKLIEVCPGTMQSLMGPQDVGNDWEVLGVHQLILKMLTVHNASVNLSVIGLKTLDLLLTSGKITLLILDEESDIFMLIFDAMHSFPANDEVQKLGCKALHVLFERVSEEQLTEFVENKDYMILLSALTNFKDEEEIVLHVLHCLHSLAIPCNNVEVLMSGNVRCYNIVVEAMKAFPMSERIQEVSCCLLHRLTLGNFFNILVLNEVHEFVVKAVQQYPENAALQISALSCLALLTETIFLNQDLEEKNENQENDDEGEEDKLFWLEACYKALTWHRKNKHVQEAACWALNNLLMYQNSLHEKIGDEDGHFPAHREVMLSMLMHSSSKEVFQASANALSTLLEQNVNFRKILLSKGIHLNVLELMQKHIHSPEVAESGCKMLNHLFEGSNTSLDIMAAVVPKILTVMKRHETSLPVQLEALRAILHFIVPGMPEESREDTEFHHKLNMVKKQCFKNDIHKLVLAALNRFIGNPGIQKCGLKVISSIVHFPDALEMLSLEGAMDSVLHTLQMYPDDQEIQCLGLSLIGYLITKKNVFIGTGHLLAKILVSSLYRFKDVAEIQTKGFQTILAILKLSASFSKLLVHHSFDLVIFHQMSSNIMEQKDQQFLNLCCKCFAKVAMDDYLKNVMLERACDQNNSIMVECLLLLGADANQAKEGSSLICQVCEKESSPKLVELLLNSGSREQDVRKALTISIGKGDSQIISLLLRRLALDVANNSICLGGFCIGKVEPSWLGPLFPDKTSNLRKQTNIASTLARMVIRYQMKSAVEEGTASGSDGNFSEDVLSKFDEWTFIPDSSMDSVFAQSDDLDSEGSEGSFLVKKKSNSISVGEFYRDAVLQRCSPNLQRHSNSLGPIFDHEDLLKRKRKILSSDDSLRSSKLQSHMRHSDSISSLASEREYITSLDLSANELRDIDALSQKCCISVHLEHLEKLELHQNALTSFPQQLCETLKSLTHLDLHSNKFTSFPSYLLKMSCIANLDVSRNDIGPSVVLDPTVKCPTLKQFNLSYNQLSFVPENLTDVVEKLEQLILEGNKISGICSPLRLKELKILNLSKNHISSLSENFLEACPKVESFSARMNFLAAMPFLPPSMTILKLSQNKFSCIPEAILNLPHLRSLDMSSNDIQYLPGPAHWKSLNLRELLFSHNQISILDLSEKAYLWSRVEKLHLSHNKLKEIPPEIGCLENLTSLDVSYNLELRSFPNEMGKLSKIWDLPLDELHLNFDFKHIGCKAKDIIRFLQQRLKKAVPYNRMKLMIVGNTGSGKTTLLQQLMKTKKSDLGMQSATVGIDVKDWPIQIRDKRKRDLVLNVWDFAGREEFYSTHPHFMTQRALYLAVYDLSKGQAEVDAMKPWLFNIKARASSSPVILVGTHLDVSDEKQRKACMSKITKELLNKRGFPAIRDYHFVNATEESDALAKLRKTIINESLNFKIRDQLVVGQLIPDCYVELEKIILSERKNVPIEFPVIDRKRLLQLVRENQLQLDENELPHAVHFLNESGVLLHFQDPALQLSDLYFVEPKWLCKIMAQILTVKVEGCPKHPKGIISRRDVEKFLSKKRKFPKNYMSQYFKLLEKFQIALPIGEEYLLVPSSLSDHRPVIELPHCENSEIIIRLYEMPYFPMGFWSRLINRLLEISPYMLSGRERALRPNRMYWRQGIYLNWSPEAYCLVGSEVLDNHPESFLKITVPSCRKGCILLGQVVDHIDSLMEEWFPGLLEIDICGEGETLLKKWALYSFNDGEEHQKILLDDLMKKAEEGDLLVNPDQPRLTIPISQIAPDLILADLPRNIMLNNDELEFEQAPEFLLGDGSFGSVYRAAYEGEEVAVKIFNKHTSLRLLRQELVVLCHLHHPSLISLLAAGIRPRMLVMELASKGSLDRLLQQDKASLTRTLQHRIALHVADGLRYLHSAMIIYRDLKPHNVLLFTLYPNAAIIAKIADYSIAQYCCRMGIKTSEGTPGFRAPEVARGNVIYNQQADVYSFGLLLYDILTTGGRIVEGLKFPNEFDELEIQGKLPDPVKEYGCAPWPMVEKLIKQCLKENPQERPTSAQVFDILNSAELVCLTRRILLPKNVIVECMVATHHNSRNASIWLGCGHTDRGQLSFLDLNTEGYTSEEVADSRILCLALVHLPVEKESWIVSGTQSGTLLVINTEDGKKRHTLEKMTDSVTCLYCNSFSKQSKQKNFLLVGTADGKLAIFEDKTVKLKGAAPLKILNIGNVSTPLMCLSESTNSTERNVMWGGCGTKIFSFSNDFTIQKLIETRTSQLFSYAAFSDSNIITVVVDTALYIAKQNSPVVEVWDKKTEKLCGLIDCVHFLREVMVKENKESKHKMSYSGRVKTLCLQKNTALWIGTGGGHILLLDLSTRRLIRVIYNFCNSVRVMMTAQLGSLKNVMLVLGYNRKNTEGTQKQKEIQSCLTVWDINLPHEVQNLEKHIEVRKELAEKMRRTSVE
Procedure: as §1

GFP-LRRK2 G2019S = target: T2, GFP-LRRK2 G2019S (Homo sapiens, UniProt Q5S007, G2019S); test: Immunoprecipitation/Western analysis of LRRK2 phosphorylation at Ser910, Ser935, Ser955, Ser973 in HEK293 T-REx GFP-LRRK2 G2019S cells; format: cell-based; details: 20 µM, 90 min, HEK293 GFP-LRRK2 G2019S, Figure 6
T2 construct: expressed in transfected cells
T2 sequence (Q5S007 whole entry G2019S): as the sequence (Q5S007 whole entry G2019S, the tested form may be a part) above
Procedure: Immunoblot analysis: BacMam LRRK2-GFP transduced U-2 OS or SH-SY5Y cells (10^7 cells) were left untreated or treated with 3 µM LRRK2-IN-I for 90 min. For lysate preparation, the cells were washed once with ice-cold PBS and lysed by addition of ice-cold lysis buffer (20 mM Tris-HCl, pH 7.4, 1% NP-40, 5 mM EDTA, 5 mM NaF, 150 mM NaCl, and 1∶100 of protease and phosphatase inhibitor cocktails). The lysate was cleared of debris by centrifugation. Equal amount of total protein was loaded onto each lane for SDS-PAGE (3–8% Tris Acetate). The proteins were transferred onto nitrocellulose membrane using the iBLOT® dry blotting system (Life Technologies) according to manufacturer’s protocol. The membranes were blocked and incubated with a primary antibody against LRRK2 (Cell Signaling Technologies), followed by incubation with alkaline phosphatase-conjugated secondary antibody (WesternBreeze® chromogenic Kit, Life Technologies). The blot was developed by using the chromogenic BCIP/NBT substrate (WesternBreeze® chromogenic Kit, Life Technologies). […] Two days post induction, cells were treated for 90 minutes in the presence of 20 µM of compound or DMSO vehicle control. Cells were rapidly lysed in ice cold lysis buffer 50 mM Tris/HCl, pH 7.5, 1 mM EGTA, 1 mM EDTA, […] 1 mM sodium orthovanadate, 10 mM sodium beta-glycerolphosphate, 50 mM NaF, 5 mM sodium pyrophosphate, 0.27 M sucrose, 1 mM benzamidine and 2 mM phenylmethanesulphonylfluoride (PMSF) and one tablet each complete protease inhibitor and PhosSTOP phosphatase inhibitor (Roche) and was supplemented with 1% (v/v) Triton X-100. GFP-LRRK2 was immunoprecipitated with GFP nanotrap beads (ChromoTek). Immunecomplexes were washed twice with lysis buffer supplemented with 300 mM NaCl and once with Buffer A (50 mM Tris/HCl, pH 7.5, 50 mM NaCl, 0.1 mM EGTA and 0.1% (v/v) 2-mercaptoethanol, and 0.27 M sucrose).

[4] = Cytotoxicity assay (resazurin-based cell viability); details: human

COc1cc(C(=O)N2CCC(N3CCN(C)CC3)CC2)ccc1Nc1ncc2c(n1)N(C)c1ccccc1C(=O)N2C [LRRK2-IN-1]
Ser935 phosphorylation by Western blot (LRRK2-GFP [1]): significantly reduced | Ser935 phosphorylation by Western blot (LRRK2-GFP [2]): diminished | phosphorylation at Ser910, Ser935, Ser955 and Ser973 by immunoblot (LRRK2-GFP [3]): responsive to LRRK2-IN-1 treatment | effect on phosphorylation of Ser910, Ser935, Ser955 and Ser973 (IP-Western) (GFP-LRRK2 G2019S): inhibited phosphorylation of Ser910, Ser935, Ser955 and Ser973 | IC50 [4]: > 20 µM

Source: paper PMC3429506, “Screening for Novel LRRK2 Inhibitors Using a High-Throughput TR-FRET Cellular Assay for LRRK2 Ser935 Phosphorylation” (PLoS ONE, 2012)
